Reference: patent US20230218624A1 (Urovant Sciences GmbH, priority 2017, published 2023)

Tested on: men and women with OAB
Experiment: Phase 2b efficacy study in men and women with OAB
Type: in vivo, human
Conditions: for Micturitions, change from baseline in average number of micturitions, difference in LS means / Total incontinence, change from baseline in average number of episodes, difference in LS means / Urgency Episodes, change from baseline in average number of episodes, difference in LS means / Urgency incontinence, change from baseline in average number of episodes, difference in LS means / Volume voided, change from baseline in average volume per void over one diary day, difference in LS means: week 8; for Change from baseline in volume voided per micturition, difference from placebo in LS means: Week 8; for Total incontinence episodes, change from baseline Week 8, mean / Total incontinence episodes, daily number, Week 8 mean / Total incontinence episodes, difference from placebo Week 8, difference in LS means / Urgency incontinence episodes, change from baseline Week 8, mean / Urgency incontinence episodes, daily number, Week 8 mean / Urgency incontinence episodes, difference from placebo Week 8, difference in LS means: OAB wet subjects
From the text: Part 2 was designed to continue to assess the safety and efficacy of concomitant dosing. […] Subjects in both Part 1 and Part 2 had the option of enrolling in a 1-year extension. Participants were required to keep a voiding diary, recording the occurrence of each strong urge, total incontinence, and urge incontinence episode. Efficacy data for Part 1 and Part 2 are summarized herein.
The total number of urgency incontinence episodes must have exceeded the total number of stress incontinence episodes for all subjects.
Conversely, a dose dependent effect on urge incontinence or total incontinence was not observed.

In the case of `O=C(Nc1ccc(C[C@@H]2CC[C@H]([C@H](O)c3ccccc3)N2)cc1)[C@@H]1CCc2nccc(=O)n21` [Vibegron, (6S)—N-[4-[[(2S,5R)-5-[(R)-hydroxy(phenyl)methyl]pyrrolidin-2-yl]methyl]phenyl]-4-oxo-7,8-dihydro-6H-pyrrolo[1,2-a]pyrimidine-6-carboxamide], the “Micturitions, change from baseline in average number of micturitions, difference in LS means” value (“Micturitions, change … difference in LS means” for short) (50 mg - Placebo) is reported as −0.64, the “Total incontinence, change from baseline in average number of episodes, difference in LS means” value (50 mg - Placebo) is reported as −0.60 and the “Urgency Episodes, change from baseline in average number of episodes, difference in LS means” value (50 mg - Placebo) is reported as −0.76. The “Urgency incontinence, change from baseline in average number of episodes, difference in LS means” value (50 mg - Placebo) was −0.72, the “Volume voided, change from baseline in average volume per void over one diary day, difference in LS means” value (50 mg - Placebo) was 29.1 mL and the “Micturitions, change … difference in LS means” value (100 mg - 50 mg) was −0.27. The “Total incontinence, change from baseline in average number of episodes, difference in LS means” value (100 mg - 50 mg) was 0.02, the “Urgency Episodes, change from baseline in average number of episodes, difference in LS means” value (100 mg - 50 mg) was −0.48 and the “Urgency incontinence, change from baseline in average number of episodes, difference in LS means” value (100 mg - 50 mg) was 0.01. For the same molecule, the “Volume voided, change from baseline in average volume per void over one diary day, difference in LS means” value (100 mg - 50 mg) was -5.69 mL, the “Micturitions, change … difference in LS means” value (100 mg - Placebo) was −0.91 and the “Total incontinence, change from baseline in average number of episodes, difference in LS means” value (100 mg - Placebo) was −0.58. For the same molecule, the “Urgency Episodes, change from baseline in average number of episodes, difference in LS means” value (100 mg - Placebo) was −1.24, the “Urgency incontinence, change from baseline in average number of episodes, difference in LS means” value (100 mg - Placebo) was −0.71 and the “Volume voided, change from baseline in average volume per void over one diary day, difference in LS means” value (100 mg - Placebo) was 23.4 mL. The “Micturitions, change from baseline Week 8, mean” value (vibegron 3 mg) was −1.56, the “Micturitions, daily number, Week 8 mean” value (vibegron 3 mg) was 9.35 and the “Micturitions, difference from placebo Week 8, difference in LS means” value (vibegron 3 mg) was −0.46. The “Urgency episodes, change from baseline Week 8, mean” value (vibegron 3 mg) was −1.69, the “Urgency episodes, daily number, Week 8 mean” value (“Urgency episodes, daily number” below) (vibegron 3 mg) was 4.68 and the “Urgency episodes, difference from placebo Week 8, difference in LS means” value (from here on “Urgency episodes, difference”) (vibegron 3 mg) was −0.18. For the same molecule, the “Change from baseline in volume voided per micturition, difference from placebo in LS means” value (vibegron 3 mg once daily) was 15.99 mL, the “Total incontinence episodes, change from baseline Week 8, mean” value (“Total incontinence episodes, change” below) (vibegron 3 mg) was −1.56 and the “Total incontinence episodes, daily number, Week 8 mean” value (vibegron 3 mg) was 1.38. For the same molecule, the “Total incontinence episodes, difference from placebo Week 8, difference in LS means” value (“Total incontinence episodes, difference” for short) (vibegron 3 mg) was −0.18, the “Urgency incontinence episodes, change from baseline Week 8, mean” value (“Urgency incontinence episodes, change” below) (vibegron 3 mg) was −1.38 and the “Urgency incontinence episodes, daily number, Week 8 mean” value (vibegron 3 mg) was 1.21. The “Urgency incontinence episodes, difference from placebo Week 8, difference in LS means” value (vibegron 3 mg) was −0.28, the “Micturitions, change from baseline Week 8, mean” value (vibegron 15 mg) was −1.71 and the “Micturitions, daily number, Week 8 mean” value (vibegron 15 mg) was 9.53. For the same molecule, the “Micturitions, difference from placebo Week 8, difference in LS means” value (vibegron 15 mg) was −0.45, the “Urgency episodes, change from baseline Week 8, mean” value (vibegron 15 mg) was −2.35 and the “Urgency episodes, daily number” value (vibegron 15 mg) was 4.42. The “Urgency episodes, difference” value (vibegron 15 mg) was −0.67, the “Change from baseline in volume voided per micturition, difference from placebo in LS means” value (vibegron 15 mg once daily) was 28.23 mL and the “Total incontinence episodes, change” value (vibegron 15 mg) was −1.99. The “Total incontinence episodes, daily number, Week 8 mean” value (vibegron 15 mg) was 1.31, the “Total incontinence episodes, difference” value (vibegron 15 mg) was −0.48 and the “Urgency incontinence episodes, change” value (vibegron 15 mg) was −1.81. The “Urgency incontinence episodes, daily number, Week 8 mean” value (vibegron 15 mg) was 1.12, the “Urgency incontinence episodes, difference from placebo Week 8, difference in LS means” value (vibegron 15 mg) was −0.57 and the “Micturitions, change from baseline Week 8, mean” value (vibegron 50 mg) was −1.87. The “Micturitions, daily number, Week 8 mean” value (vibegron 50 mg) was 9.05, the “Micturitions, difference from placebo Week 8, difference in LS means” value (vibegron 50 mg) was −0.64 and the “Urgency episodes, change from baseline Week 8, mean” value (vibegron 50 mg) was −2.36. For the same molecule, the “Urgency episodes, daily number” value (vibegron 50 mg) was 3.71, the “Urgency episodes, difference” value (vibegron 50 mg) was −0.76 and the “Change from baseline in volume voided per micturition, difference from placebo in LS means” value (vibegron 50 mg once daily) was 29.05 mL. For the same molecule, the “Total incontinence episodes, change” value (vibegron 50 mg) was −2.02, the “Total incontinence episodes, daily number, Week 8 mean” value (vibegron 50 mg) was 1.02 and the “Total incontinence episodes, difference” value (vibegron 50 mg) was −0.60. For the same molecule, the “Urgency incontinence episodes, change” value (vibegron 50 mg) was −1.90, the “Urgency incontinence episodes, daily number, Week 8 mean” value (vibegron 50 mg) was 0.86 and the “Urgency incontinence episodes, difference from placebo Week 8, difference in LS means” value (vibegron 50 mg) was −0.72. The “Micturitions, change from baseline Week 8, mean” value (vibegron 100 mg) was −2.11, the “Micturitions, daily number, Week 8 mean” value (vibegron 100 mg) was 9.02 and the “Micturitions, difference from placebo Week 8, difference in LS means” value (vibegron 100 mg) was −0.91. The “Urgency episodes, change from baseline Week 8, mean” value (vibegron 100 mg) was −2.98, the “Urgency episodes, daily number” value (vibegron 100 mg) was 4.22 and the “Urgency episodes, difference” value (vibegron 100 mg) was −1.24. The “Change from baseline in volume voided per micturition, difference from placebo in LS means” value (vibegron 100 mg once daily) was 23.36 mL and the “Total incontinence episodes, change” value (vibegron 100 mg) was −2.26.
